From US20090220435A1, “TIGHT JUNCTION MODULATING PEPTIDE COMPONENTS FOR ENHANCING MUCOSAL DELIVERY OF THERAPEUTIC AGENTS” (priority 2005, published 2009)

Experiments:
[1] = test system: EpiAirway™ human-derived tracheal/bronchial epithelial cells; assay: Transepithelial electrical resistance (TER) across EpiAirway epithelial cell layer; assay type: cell-based
[2] = test system: EpiAirway™ human-derived tracheal/bronchial epithelial cells; assay: Cytotoxicity (LDH assay); assay type: cell-based
[3] = Chemical stability of PN159 (stability indicating HPLC); assay type: physicochemical; details: pH 9 and/or elevated temperature, 40 to 50° C.
Description: The chemical stability of the PN159 was determined under therapeutically relevant storage conditions. A stability indicating HPLC method was employed. Solutions (50 mM) were stored at various pH (4.0, 7.3, and 9.0) and temperature (5° C., 25° C., 35° C., 40° C., and 50° C.) conditions. Samples at pH 4 contained 10 mM citrate buffer. Samples at pH 7.3 and 9.0 contained 10 mM phosphate buffer. Representative storage stability data (including the Arrhenius plot) are depicted in FIG. 6. […] For example, at 5° C. and pH 4.0 or pH7.3, there was essentially 100% recovery of PN159 for six month storage. […] The pH range of 4.0 to 7.3 and the temperature range of refrigerated to ambient are most relevant for intranasal formulations.
The chemical stability of the PN159 was determined under therapeutically relevant storage conditions. A stability indicating HPLC method was employed. Solutions (50 mM) were stored at various pH (4.0, 7.3, and 9.0) and temperature (5° C., 25° C., 35° C., 40° C., and 50° C.) conditions. Samples at pH 4 contained 10 mM citrate buffer. Samples at pH 7.3 and 9.0 contained 10 mM phosphate buffer. […] For example, at 5° C. and pH 4.0 or pH 7.3, there was essentially 100% recovery of PN159 for six month storage. […]
The chemical stability of the PN159 was determined under therapeutically relevant storage conditions. […]

For CC(C)C[C@H](NC(=O)[C@H](C)NC(=O)[C@H](CCCCN)NC(=O)[C@H](CC(C)C)NC(=O)[C@H](C)NC(=O)[C@H](CC(C)C)NC(=O)[C@H](CCCCN)NC(=O)[C@H](CC(C)C)NC(=O)[C@H](C)NC(=O)[C@H](CC(C)C)NC(=O)[C@@H](N)CCCCN)C(=O)N[C@@H](CCCCN)C(=O)N[C@@H](C)C(=O)N[C@@H](C)C(=O)N[C@@H](CC(C)C)C(=O)N[C@@H](CCCCN)C(=O)N[C@@H](CC(C)C)C(=O)N[C@@H](C)C(N)=O [PN159], the TER reduction ([1]; 1 μM peptide) was 54%, the TER reduction ([1]; 2.5 μM peptide) was 79% and the TER reduction ([1]; 10 μM peptide) was 89%. The TER reduction ([1]; 25 μM peptide) was 94%, the “% T0 TER” value ([1]; 25 μM, 1 h, pH 7) was 7% and the “TER in the presence of galantamine” value ([1]; 40 mg/ml galantamine lactate, 25, 50, 100 μM PN159, pH 5.0) was “reduced TER”. For the same molecule, the TER reduction ([1]; PN159 25, 50, 100 μM with 2 mg/ml PTH, pH 4.5) was “more than 80%”, the “Relative TER Decrease” value ([1]; relative to PN159 = 1.0) was 1.0 and the “% Triton-X LDH Release” value ([2]; 25 μM, 1 h) was 31%. For the same molecule, the “cytotoxicity (LDH)” value ([2]; 25-100 μM PN159 with 2 mg/ml PTH) was “no significant cytotoxicity”, the LDH15 ([2]; 15 minute treatment at the peptide's optimal concentration) was 0.007 and the LDH60 ([2]; 60 minute treatment at the peptide's optimal concentration) was 0.002. For the same molecule, the chemical stability [3] was “rapid deterioration”.
